Laboratory results taken from patent US4876247A, “Methlenediphosphonic acid derivatives, and antirheumatic pharmaceutical composition in which they are present and methods of using same” (Sanofi, priority 1984, dated 1989).

Test system: adjuvant arthritis
Assay: "In vivo" study: adjuvant arthritis (Mycobacterium tuberculosis) in rats, weight of the right rear paw
Design: species or system male Sprague-Dawley rats
Conditions: oral, 0.16 mmol/kg/day, 6 days/week for 3 weeks, versus untreated arthritic control rats
Method: "IN VIVO" STUDY: ADJUVANT ARTHRITIS
The injection of rats with mycobacterium causes a polyarthritis and in certain respects resembles human rheumatoid arthritis.
A suspension of Mycobacterium tuberculosis (0.4 mg) in paraffin oil (0.05 ml) is injected intradermally into the tail of male Sprague-Dawley rats having a mean weight of 150 g.
These rats are divided into 2 groups of 14 animals.
The animals of the 1st group are treated 6 days/week for 3 weeks;
either subcutaneously with doses ranging from 0.32 μmol to 32 μmol/kg/day,
or orally with a dose of 0.16 mmol/kg/day. The second group receives placebo and serves as the control group.
After 3 weeks of treatment, half the animals in each group are sacrificed; the other half are kept for 2 weeks without treatment and then sacrificed in turn.
After the animals have been sacrificed, the right rear paw is removed at the tribiotarsal joint and then weighed. The mean and the standard error of the weights are determined for each half-group.
The activity of the product is expresed as the percentage variation in the mean weight of the paws of the treated arthritic rats relative to that of the arthritic paws of the untreated rats (control rats).
For each of the products tested, the therapeutic activity is expressed as the percentage inhibition of the weight of the paw after 3 weeks of treatment. […]

SMILES: Cc1ccc(SCC(N)(P(=O)(O)O)P(=O)(O)O)cc1 [42 710 A]
- % Inhibition of the weight of the paw 2 weeks after the end of the treatment (then 2 weeks without treatment): 7%
- % Inhibition of the weight of the paw at the end of the treatment (3 weeks): 19%
